Reference: the NIST ThermoML archive (doi:10.1016/j.jct.2008.04.008)
“And” between values parts separate entries of the source, which are not always exact repeats. Equal values may be shown once.

How the values were obtained:
[1] = Liquid
[2] = mn = molality of the nth substance listed, in mol/kg; conditions: Liquid; for speed of sound: Pulse-echo method

CO [methanol]
[1]
Conditions	mass density
283.15 K	800.575 kg/m3 [middle of 4 runs]
288.15 K	795.888 kg/m3 [middle of 4 runs]
293.15 K	791.194 kg/m3 and 791.243 kg/m3 and 791.184 kg/m3
298.15 K	786.534 kg/m3 and 786.475 kg/m3 and 786.485 kg/m3
303.15 K	781.758 kg/m3 [middle of 4 runs]
308.15 K	777.058 kg/m3 and 776.997 kg/m3 and 777.007 kg/m3
313.15 K	772.28 kg/m3 and 772.219 kg/m3 and 772.229 kg/m3

Conditions	speed of sound [m/s]
[1], 298.15 K, 101.33 kPa, Pulse-echo method	1102.4

CO [methanol] + [Br-].[Na+]
[2], m2 = 0
Conditions	mass density [kg/m3]
283.15 K	800.625
288.15 K	795.934
293.15 K	791.243
298.15 K	786.534
303.15 K	781.808
308.15 K	777.058
313.15 K	772.28

CO [methanol] + [Br-].c1ccc([P+](c2ccccc2)(c2ccccc2)c2ccccc2)cc1
[2], m2 = 0
Conditions	mass density [kg/m3]
283.15 K	800.567
288.15 K	795.88
293.15 K	791.184
298.15 K	786.475
303.15 K	781.748
308.15 K	776.997
313.15 K	772.219

CO [methanol] + [Na+].[O-][Cl+3]([O-])([O-])[O-]
[2], m2 = 0
Conditions	mass density [kg/m3]
283.15 K	800.568
288.15 K	795.879
293.15 K	791.184
298.15 K	786.475
303.15 K	781.746
308.15 K	776.997
313.15 K	772.219

CO [methanol] + [Na+].c1ccc([B-](c2ccccc2)(c2ccccc2)c2ccccc2)cc1
[2], m2 = 0
Conditions	mass density [kg/m3]
283.15 K	800.575
288.15 K	795.888
293.15 K	791.194
298.15 K	786.485
303.15 K	781.758
308.15 K	777.007
313.15 K	772.229

[Br-].[Na+] [sodium bromide] + CO
[2]
Conditions	mass density, 283.15 K [kg/m3]	mass density, 288.15 K [kg/m3]	mass density, 293.15 K [kg/m3]	mass density, 298.15 K [kg/m3]	mass density, 303.15 K [kg/m3]	mass density, 308.15 K [kg/m3]	mass density, 313.15 K [kg/m3]	speed of sound, 298.15 K [m/s]
m1 = 0.06477	805.613	800.933	796.252	791.558	786.848	782.114	777.354	1106.1
m1 = 0.08313	807.039	802.363	797.683	792.99	788.28	783.548	778.794	1107.1
m1 = 0.1039	808.613	803.939	799.259	794.566	789.865	785.138	780.385	1107.7
m1 = 0.1241	810.154	805.482	800.807	796.119	791.41	–	–	1108.7
m1 = 0.1439	811.667	806.995	802.323	797.64	792.938	788.218	783.471	1109.1
m1 = 0.1639	813.155	808.489	803.818	799.135	794.436	789.716	784.971	–
m1 = 0.2071	816.441	811.772	807.109	802.43	797.736	793.019	788.281	1111.8
m1 = 0.2491	819.583	814.916	810.253	805.577	800.887	796.174	791.44	1113.2
m1 = 0.2915	822.759	818.104	813.441	808.767	804.078	799.369	794.64	1114.9
m1 = 0.3318	825.782	821.118	816.459	811.79	807.103	802.396	797.671	1116.1
m1 = 0.3735	828.905	824.245	819.585	814.919	810.236	805.533	800.808	1117.6
m1 = 0.4167	832.098	827.443	822.783	818.116	813.434	808.735	804.019	1119.2

[Na+].c1ccc([B-](c2ccccc2)(c2ccccc2)c2ccccc2)cc1 [sodium tetraphenylboron] + CO
[2]
Conditions	mass density, 283.15 K [kg/m3]	mass density, 288.15 K [kg/m3]	mass density, 293.15 K [kg/m3]	mass density, 298.15 K [kg/m3]	mass density, 303.15 K [kg/m3]	mass density, 308.15 K [kg/m3]	mass density, 313.15 K [kg/m3]	speed of sound, 298.15 K [m/s]
m1 = 0.02864	803.855	799.183	794.505	789.813	785.107	780.377	775.618	–
m1 = 0.03742	804.851	800.185	795.511	790.825	786.118	781.392	776.646	–
m1 = 0.04715	805.936	801.274	796.607	791.928	787.23	782.507	–	–
m1 = 0.05653	806.979	802.323	797.659	792.985	788.298	783.585	778.847	–
m1 = 0.06567	807.991	803.338	798.679	794.015	789.33	784.622	779.888	1114.1
m1 = 0.07566	809.099	804.455	799.8	795.14	790.46	785.759	781.031	1115.7
m1 = 0.09526	811.246	806.611	801.967	797.318	792.652	787.962	783.246	1119
m1 = 0.1146	813.35	808.726	804.095	799.453	794.791	790.107	785.409	1122.4
m1 = 0.1339	815.434	810.82	806.2	801.569	796.921	792.253	787.56	1125.7
m1 = 0.1529	817.425	812.819	808.212	803.59	798.952	794.294	789.61	1128.3
m1 = 0.173	819.579	814.984	810.383	805.772	801.145	796.5	791.829	1131.7
m1 = 0.1931	821.677	817.092	812.503	807.899	803.28	798.648	793.987	1135.5

[Br-].c1ccc([P+](c2ccccc2)(c2ccccc2)c2ccccc2)cc1 [tetraphenylphosphorane bromide] + CO
[2]
Conditions	mass density, 283.15 K [kg/m3]	mass density, 288.15 K [kg/m3]	mass density, 293.15 K [kg/m3]	mass density, 298.15 K [kg/m3]	mass density, 303.15 K [kg/m3]	mass density, 308.15 K [kg/m3]	mass density, 313.15 K [kg/m3]	speed of sound, 298.15 K [m/s]
m1 = 0.0261	804.518	799.837	795.15	790.45	785.734	780.996	776.229	1106.5
m1 = 0.03452	805.776	801.095	796.408	791.716	787.003	782.267	777.504	1107.7
m1 = 0.04277	807.01	802.333	797.652	792.957	788.242	783.515	778.757	1109.1
m1 = 0.05089	808.208	803.532	798.856	794.167	789.459	784.728	779.972	1110.1
m1 = 0.05974	–	–	–	–	–	–	–	1111.4
m1 = 0.06826	810.754	806.084	801.412	796.727	792.025	787.301	782.553	1112.8
m1 = 0.08592	813.321	808.661	803.994	799.314	794.618	789.901	785.158	1115.3
m1 = 0.1039	815.894	811.236	806.575	801.901	797.21	792.499	787.763	1117.8
m1 = 0.1212	818.357	813.704	809.048	804.378	799.693	794.987	790.256	1119.9
m1 = 0.1384	820.799	816.147	811.492	806.831	802.152	797.452	792.728	1122.4
m1 = 0.1565	823.304	818.656	814.011	809.353	804.679	799.985	795.267	1124.7
m1 = 0.1747	825.843	821.2	816.556	811.905	807.237	802.548	797.837	1127
